Assay results published in ChEMBL document CHEMBL4270672, “Synthesis and Biological Evaluation of Fused Tricyclic Heterocycle Piperazine (Piperidine) Derivatives As Potential Multireceptor Atypical Antipsychotics” (J Med Chem, 2018).

What was measured:
[1] = Displacement of [3H] nisoxetine from NET in rat hippocampal membrane homogenates after 8 hrs by liquid scintillation counting; type: cell membranes
[2] = target: 5-hydroxytryptamine receptor 1A (Homo sapiens) (UniProt P08908); test: Agonist activity at serotonin 5-HT1A receptor (unknown origin) expressed in HEK293 cells assessed as induction of calcium flux at 10 uM after 60 mins by calcium 4-dye based FLIPR assay relative to control; type: functional, cell-based
Mus musculus [3] = species on record: Mus musculus; test: animal or person; conditions: Kunming, po
Description: Antipsychotic activity in po dosed Kunming mouse assessed as reduction in MK-801-induced hyperactivity pretreated for 60 mins followed by MK-801 challenge measured for 90 mins

D(2) dopamine receptor [4] = target: D(2) dopamine receptor (Rattus norvegicus, UniProt P61169)
D(2) dopamine receptor [5] = target: D(2) dopamine receptor (Homo sapiens, UniProt P14416); test: Antagonist activity at dopamine D2 receptor long isoform (unknown origin) expressed in HEK293 cells assessed as inhibition of dopamine-induced calcium flux at 10 uM after 15 mins by calcium 4-dye based FLIPR assay relative to control; type: functional, cell-based
Histamine H1 receptor = Histamine H1 receptor (Cavia porcellus, UniProt P31389)
Description: Displacement of [3H]-mepyramine from histamine H1 receptor in guinea pig cerebellum homogenates incubated for 60 mins by liquid scintillation counting

Mus musculus [6] = test: Induction of weight gain in Kunming mouse at 0.6 to 5.4 mg/kg, po administered for 28 days measured every day during compound dosing; type: organism-based; conditions: in vivo, 672 h
[7] = target: Sodium-dependent serotonin transporter (Rattus norvegicus, UniProt P31652); test: Displacement of [3H]-paroxetine from SERT in rat cerebral cotex homogenates after 10 mins by liquid scintillation counting
D(1A) dopamine receptor = D(1A) dopamine receptor (Rattus norvegicus, UniProt P18901); test: Displacement of [3H]-SCH23390 from dopamine D1 receptor in rat strriatum homogenates after 20 mins by liquid scintillation counting
[8] = Cmax in Sprague-Dawley rat at 10 mg/kg, po by LC-MS/MS analysis; type: ADME, organism-based; design: dose 10 mg/kg, route oral; conditions: in vivo
[9] = target: T1, 5-hydroxytryptamine receptor 1A (Rattus norvegicus, UniProt P19327)
T1 sequence (P19327 whole entry): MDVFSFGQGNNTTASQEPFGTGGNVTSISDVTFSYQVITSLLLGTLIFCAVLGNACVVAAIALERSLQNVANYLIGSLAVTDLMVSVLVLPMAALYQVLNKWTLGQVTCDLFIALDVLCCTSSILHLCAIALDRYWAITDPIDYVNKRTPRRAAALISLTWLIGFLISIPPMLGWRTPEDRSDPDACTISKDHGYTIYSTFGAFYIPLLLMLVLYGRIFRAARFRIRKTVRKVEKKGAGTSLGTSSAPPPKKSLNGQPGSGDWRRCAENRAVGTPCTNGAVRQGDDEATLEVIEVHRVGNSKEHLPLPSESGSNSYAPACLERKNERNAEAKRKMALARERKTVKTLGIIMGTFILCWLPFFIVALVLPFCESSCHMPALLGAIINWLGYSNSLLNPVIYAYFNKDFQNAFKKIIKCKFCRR

[10] = target: Sodium-dependent dopamine transporter (Rattus norvegicus, UniProt P23977); test: Displacement of [3H] WIN35,428 from rat striatum homogenate DAT after 8 hrs mins by liquid scintillation counting
[11] = target: Voltage-gated inwardly rectifying potassium channel KCNH2 (Homo sapiens, UniProt Q12809)
Description: Inhibition of human ERG expressed in HEK293 cells at -50 mV holding potential by patch clamp assay

[12] = target: Muscarinic acetylcholine receptor M1 (Homo sapiens, UniProt P11229); test: Displacement of [3H]-QNB from M1 receptor (unknown origin) in cell membrane homogenates after 30 mins by liquid scintillation counting
[13] = target: T2, Adrenergic receptor alpha-1 (Rattus norvegicus, UniProt P15823+P23944+P43140)
T2 sequence (P15823 whole entry): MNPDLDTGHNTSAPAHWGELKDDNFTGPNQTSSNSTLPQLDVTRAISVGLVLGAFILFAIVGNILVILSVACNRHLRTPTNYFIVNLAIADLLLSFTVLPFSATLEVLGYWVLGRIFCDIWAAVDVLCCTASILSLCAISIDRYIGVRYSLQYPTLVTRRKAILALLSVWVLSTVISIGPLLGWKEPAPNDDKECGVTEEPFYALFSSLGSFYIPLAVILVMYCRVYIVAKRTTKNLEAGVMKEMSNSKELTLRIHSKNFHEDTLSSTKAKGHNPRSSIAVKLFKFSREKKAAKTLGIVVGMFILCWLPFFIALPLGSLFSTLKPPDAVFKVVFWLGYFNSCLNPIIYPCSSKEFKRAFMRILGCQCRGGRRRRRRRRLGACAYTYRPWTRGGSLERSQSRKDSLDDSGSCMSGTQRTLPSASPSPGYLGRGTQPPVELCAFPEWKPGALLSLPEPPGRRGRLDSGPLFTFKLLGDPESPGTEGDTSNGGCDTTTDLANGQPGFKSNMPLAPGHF
T2 sequence (P23944 whole entry): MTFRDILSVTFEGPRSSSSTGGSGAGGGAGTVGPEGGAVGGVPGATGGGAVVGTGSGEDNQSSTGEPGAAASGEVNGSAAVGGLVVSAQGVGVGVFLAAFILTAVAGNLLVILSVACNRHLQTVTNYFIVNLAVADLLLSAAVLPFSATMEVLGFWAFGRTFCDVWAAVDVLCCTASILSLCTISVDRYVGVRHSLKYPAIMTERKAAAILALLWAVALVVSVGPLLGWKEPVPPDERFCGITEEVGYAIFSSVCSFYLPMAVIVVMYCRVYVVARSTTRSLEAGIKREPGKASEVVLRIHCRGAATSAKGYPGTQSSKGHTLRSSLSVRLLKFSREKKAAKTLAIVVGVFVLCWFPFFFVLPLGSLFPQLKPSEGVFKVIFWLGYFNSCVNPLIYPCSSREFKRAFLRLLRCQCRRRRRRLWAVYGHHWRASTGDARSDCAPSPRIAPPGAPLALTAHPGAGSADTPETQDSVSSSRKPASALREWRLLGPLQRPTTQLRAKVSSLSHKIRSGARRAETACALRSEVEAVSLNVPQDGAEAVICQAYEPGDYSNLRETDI
T2 sequence (P43140 whole entry): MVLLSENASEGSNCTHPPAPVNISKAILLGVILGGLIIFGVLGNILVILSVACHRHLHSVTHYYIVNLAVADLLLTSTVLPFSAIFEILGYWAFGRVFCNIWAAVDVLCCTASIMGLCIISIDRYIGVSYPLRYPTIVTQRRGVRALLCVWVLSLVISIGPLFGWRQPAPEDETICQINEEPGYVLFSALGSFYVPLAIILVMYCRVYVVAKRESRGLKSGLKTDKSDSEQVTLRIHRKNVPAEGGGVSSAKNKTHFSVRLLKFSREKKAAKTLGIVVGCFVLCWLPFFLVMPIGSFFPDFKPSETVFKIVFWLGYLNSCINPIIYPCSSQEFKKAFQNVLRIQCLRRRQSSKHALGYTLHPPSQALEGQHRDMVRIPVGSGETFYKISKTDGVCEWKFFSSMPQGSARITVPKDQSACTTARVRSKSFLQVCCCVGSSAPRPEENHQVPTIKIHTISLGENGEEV
Description: Displacement of [3H]-prazosin from alpha-1 adrenergic receptor in rat cerebral cortex homogenates incubated for 60 mins by liquid scintillation counting

Glutamate NMDA receptor = test: Displacement of [3H] glycine from NMDA receptor in rat hippocampal membrane homogenates after 30 mins by liquid scintillation counting; type: cell membranes

Sequence of Muscarinic acetylcholine receptor M1 (P11229 whole entry): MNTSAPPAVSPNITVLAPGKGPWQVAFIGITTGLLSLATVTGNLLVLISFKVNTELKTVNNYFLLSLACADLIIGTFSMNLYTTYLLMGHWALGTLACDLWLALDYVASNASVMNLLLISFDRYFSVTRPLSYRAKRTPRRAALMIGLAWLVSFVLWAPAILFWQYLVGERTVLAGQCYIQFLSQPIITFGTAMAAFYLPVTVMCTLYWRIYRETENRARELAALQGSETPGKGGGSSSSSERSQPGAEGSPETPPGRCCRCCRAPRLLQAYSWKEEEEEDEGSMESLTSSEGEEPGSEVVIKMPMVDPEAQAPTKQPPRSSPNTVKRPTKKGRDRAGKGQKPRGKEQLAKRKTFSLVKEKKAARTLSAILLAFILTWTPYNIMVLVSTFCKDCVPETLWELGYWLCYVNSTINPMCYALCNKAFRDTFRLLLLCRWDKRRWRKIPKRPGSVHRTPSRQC
Sequence of Voltage-gated inwardly rectifying potassium channel KCNH2 (Q12809 whole entry): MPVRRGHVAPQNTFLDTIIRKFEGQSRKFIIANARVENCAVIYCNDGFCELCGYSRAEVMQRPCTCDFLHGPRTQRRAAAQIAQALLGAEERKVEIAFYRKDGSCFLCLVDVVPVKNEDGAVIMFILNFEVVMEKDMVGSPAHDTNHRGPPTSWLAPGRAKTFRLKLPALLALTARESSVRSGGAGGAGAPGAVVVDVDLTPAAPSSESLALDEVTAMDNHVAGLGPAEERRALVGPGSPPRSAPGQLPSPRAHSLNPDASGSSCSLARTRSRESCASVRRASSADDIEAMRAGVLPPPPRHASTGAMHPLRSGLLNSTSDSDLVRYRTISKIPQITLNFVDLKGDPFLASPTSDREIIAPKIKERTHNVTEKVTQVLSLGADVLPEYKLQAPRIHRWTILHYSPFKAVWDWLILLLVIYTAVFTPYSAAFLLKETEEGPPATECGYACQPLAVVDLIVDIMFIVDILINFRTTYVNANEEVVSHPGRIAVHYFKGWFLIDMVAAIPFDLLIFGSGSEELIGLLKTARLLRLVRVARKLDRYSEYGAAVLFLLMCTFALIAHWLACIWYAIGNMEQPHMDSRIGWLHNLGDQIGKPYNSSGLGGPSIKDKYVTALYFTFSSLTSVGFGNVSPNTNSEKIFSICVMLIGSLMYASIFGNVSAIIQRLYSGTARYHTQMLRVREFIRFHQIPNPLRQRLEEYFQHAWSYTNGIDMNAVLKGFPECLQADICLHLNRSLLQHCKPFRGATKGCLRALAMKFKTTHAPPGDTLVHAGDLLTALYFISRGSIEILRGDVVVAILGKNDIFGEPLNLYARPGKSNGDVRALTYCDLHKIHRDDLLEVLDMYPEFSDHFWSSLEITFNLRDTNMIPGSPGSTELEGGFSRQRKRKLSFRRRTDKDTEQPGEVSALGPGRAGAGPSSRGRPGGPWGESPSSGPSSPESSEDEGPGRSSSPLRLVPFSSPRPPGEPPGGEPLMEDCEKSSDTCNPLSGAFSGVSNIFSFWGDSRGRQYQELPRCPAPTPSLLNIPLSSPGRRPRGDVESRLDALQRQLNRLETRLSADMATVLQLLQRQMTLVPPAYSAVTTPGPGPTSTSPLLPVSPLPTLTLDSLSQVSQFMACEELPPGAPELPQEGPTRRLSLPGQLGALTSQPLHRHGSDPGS
Sequence of 5-hydroxytryptamine receptor 1A (Homo sapiens) (P08908 whole entry): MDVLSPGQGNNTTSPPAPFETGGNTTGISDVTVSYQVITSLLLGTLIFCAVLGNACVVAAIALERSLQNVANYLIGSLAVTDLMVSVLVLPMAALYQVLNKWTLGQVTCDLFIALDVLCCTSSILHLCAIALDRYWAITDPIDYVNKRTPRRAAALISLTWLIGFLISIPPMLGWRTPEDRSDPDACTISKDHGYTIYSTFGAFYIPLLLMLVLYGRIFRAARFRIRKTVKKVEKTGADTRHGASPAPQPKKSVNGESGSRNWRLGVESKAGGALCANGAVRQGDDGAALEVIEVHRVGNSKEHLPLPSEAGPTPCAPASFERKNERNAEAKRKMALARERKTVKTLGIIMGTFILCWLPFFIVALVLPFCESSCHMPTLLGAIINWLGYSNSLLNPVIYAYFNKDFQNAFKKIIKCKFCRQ
Sequence of Sodium-dependent dopamine transporter (P23977 whole entry): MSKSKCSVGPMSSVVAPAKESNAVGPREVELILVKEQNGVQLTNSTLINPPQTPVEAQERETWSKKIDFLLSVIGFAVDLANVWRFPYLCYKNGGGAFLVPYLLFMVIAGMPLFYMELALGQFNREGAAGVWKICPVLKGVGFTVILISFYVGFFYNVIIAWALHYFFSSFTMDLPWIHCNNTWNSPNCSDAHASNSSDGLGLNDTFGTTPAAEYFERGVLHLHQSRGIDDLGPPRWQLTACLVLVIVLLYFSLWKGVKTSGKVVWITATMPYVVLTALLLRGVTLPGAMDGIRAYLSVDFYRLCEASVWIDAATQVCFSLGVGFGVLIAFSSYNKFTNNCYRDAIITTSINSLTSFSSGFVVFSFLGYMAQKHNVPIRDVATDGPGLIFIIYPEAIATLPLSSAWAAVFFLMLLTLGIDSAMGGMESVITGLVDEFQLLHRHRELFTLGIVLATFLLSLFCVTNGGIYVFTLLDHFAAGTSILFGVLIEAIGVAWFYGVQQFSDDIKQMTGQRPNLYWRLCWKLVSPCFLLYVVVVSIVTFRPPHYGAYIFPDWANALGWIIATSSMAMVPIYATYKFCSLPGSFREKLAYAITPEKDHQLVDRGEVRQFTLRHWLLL
Sequence of D(2) dopamine receptor (Rattus norvegicus, UniProt P61169) (P61169 whole entry, canonical isoform): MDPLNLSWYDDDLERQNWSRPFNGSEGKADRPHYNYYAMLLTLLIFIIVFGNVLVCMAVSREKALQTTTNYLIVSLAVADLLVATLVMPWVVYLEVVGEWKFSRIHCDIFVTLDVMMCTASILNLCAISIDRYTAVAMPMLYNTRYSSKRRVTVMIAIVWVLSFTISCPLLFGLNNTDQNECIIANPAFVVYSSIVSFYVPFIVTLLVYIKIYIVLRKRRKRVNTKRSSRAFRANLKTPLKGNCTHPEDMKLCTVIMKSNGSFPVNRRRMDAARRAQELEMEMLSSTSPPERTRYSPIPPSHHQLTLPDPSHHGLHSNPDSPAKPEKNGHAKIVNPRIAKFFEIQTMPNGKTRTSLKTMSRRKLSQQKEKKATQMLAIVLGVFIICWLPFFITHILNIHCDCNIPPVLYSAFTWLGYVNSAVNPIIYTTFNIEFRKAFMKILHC
Sequence of Sodium-dependent serotonin transporter (P31652 whole entry): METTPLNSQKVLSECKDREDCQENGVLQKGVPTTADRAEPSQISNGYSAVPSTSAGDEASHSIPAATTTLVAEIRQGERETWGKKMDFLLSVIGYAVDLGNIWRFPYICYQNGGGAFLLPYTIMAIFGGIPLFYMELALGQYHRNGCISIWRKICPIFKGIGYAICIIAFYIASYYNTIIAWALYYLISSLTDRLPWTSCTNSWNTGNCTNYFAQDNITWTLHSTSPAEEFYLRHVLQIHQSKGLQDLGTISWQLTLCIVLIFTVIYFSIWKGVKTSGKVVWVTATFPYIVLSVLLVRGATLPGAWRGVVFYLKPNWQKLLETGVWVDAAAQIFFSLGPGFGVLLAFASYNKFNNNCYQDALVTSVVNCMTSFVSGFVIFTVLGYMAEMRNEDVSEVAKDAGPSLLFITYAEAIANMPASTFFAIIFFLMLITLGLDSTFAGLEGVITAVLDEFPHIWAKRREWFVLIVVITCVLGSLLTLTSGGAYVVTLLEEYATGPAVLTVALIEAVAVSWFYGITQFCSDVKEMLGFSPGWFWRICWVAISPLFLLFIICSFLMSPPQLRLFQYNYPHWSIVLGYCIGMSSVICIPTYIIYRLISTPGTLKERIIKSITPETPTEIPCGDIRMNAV
Sequence of Histamine H1 receptor (P31389 whole entry): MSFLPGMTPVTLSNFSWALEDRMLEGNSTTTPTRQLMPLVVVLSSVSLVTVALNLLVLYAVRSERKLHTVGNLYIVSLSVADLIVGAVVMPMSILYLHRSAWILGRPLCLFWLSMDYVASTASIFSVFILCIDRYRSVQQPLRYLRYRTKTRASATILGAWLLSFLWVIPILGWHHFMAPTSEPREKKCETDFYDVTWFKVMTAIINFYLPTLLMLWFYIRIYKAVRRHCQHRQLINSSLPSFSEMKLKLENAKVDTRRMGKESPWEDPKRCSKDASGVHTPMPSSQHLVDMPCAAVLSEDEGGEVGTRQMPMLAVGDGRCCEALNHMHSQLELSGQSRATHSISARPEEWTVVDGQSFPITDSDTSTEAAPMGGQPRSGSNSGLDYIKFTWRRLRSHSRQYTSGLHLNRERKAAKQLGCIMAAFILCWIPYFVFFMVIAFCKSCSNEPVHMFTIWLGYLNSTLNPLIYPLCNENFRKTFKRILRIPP
Sequence of D(2) dopamine receptor (Homo sapiens, UniProt P14416) (P14416 whole entry, canonical isoform): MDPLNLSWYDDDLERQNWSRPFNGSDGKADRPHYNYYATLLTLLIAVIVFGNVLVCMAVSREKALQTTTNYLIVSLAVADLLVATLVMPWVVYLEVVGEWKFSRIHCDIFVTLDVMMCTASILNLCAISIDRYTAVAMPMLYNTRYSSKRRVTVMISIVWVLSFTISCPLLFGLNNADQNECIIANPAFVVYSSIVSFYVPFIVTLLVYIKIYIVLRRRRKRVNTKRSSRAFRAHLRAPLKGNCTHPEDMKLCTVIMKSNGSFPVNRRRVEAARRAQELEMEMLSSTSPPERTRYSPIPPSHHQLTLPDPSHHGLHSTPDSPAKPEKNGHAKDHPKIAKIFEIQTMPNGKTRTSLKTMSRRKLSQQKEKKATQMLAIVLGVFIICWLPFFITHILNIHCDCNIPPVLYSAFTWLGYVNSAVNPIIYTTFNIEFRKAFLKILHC

## O=C(CCCCN1CCC(c2noc3cc(F)ccc23)CC1)c1cc2c3c(c1)CCN3C(=O)CC2
[1]
  Ki: > 1000 nM
[2]
  Activity: 8.6%
Mus musculus [3]
  ED50: 0.26 mg/kg
D(2) dopamine receptor [4]
  Ki: 2.9 nM
D(2) dopamine receptor [5]
  inhibition: 93.3%
Histamine H1 receptor
  Ki: 630 nM
Mus musculus [6]
  Activity: Non-Toxic
[7]
  Ki: > 1000 nM
D(1A) dopamine receptor
  Ki: 76.9 nM
[8]
  Cmax: 3730 ng/mL
[9]
  Ki: 8.6 nM
[10]
  Ki: > 1000 nM
[11]
  IC50: 2910 nM
[12]
  Ki: > 1000 nM
[13]
  Ki: 431 nM
Glutamate NMDA receptor
  Ki: > 1000 nM
